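These data come from cells grown in 96-well plates and exposed to compound for 48 hours at five concentrations. GI50 marks 50% less growth.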 Active and inactive are the calls of the source. Cut-off read from the data, not from the text of the source: active = GI50 up to about 1.1 µM and inactive = higher.
What was measured:
Assay in all cases: DTP human tumour cell line panel, 48 h
RPMI-8226 = system: RPMI-8226
UACC-257 = system: UACC-257
MDA-MB-231 = system: MDA-MB-231
HL-60 = system: HL-60
SW-620 = system: SW-620
SF-295 = system: SF-295
HOP-62 = system: HOP-62
MDA-MB-435 = system: MDA-MB-435
HOP-92 = system: HOP-92
OVCAR-5 = system: OVCAR-5
SK-OV-3 = system: SK-OV-3
T47D = system: T47D
NCI-H23 = system: NCI-H23
Malme-3M = system: Malme-3M
CAKI-1 = system: CAKI-1
DU-145 = system: DU-145
A498 = system: A498
OVCAR-8 = system: OVCAR-8
HCT-116 = system: HCT-116
OVCAR-3 = system: OVCAR-3

Row | SMILES | GI50 (RPMI-8226) | GI50 (UACC-257) | GI50 (MDA-MB-231) | GI50 (HL-60) | GI50 (SW-620) | GI50 (SF-295) | GI50 (HOP-62) | GI50 (MDA-MB-435) | GI50 (HOP-92) | GI50 (OVCAR-5) | GI50 (SK-OV-3) | GI50 (T47D) | GI50 (NCI-H23) | GI50 (Malme-3M) | GI50 (CAKI-1) | GI50 (DU-145) | GI50 (A498) | GI50 (OVCAR-8) | GI50 (HCT-116) | GI50 (OVCAR-3)
1 | S=C(NCc1ccccc1)N/N=C/c1ccccn1 | 0.118 µM (active) | 2.42 µM (inactive) | 1.24 µM (inactive) | 0.0302 µM (active) | 1.16 µM (inactive) | 1.86 µM (inactive) | 3.7 µM (inactive) | 5.69 µM (inactive) | 2.21 µM (inactive) | > 21.8 µM (inactive) | 3.94 µM (inactive) | 0.161 µM (active) | 3.56 µM (inactive) | 1.45 µM (inactive) | 0.335 µM (active) | 3.08 µM (inactive) | 3.87 µM (inactive) | 1.15 µM (inactive) | 0.34 µM (active) | 0.222 µM (active)
2 | NS(=O)(=O)c1nn2c(Br)c(-c3ccccc3)nc2s1 | 2.39 µM (inactive) | 5.16 µM (inactive) | 4.47 µM (inactive) | 3.66 µM (inactive) | 3.62 µM (inactive) | 8.97 µM (inactive) | 14.9 µM (inactive) | 4.45 µM (inactive) | 8.77 µM (inactive) | 11.1 µM (inactive) | 14.7 µM (inactive) | 3.66 µM (inactive) | 3.48 µM (inactive) | 3.96 µM (inactive) | 3.03 µM (inactive) | 3.08 µM (inactive) | 17 µM (inactive) | 2.38 µM (inactive) | 2.04 µM (inactive) | 4.49 µM (inactive)
3 | COc1ccc(/C=C2\CN(C)C/C(=C\c3ccc(OC)c(OC)c3OC)C2=O)c(OC)c1OC | 0.0292 µM (active) | 0.249 µM (active) | 0.282 µM (active) | 0.0191 µM (active) | 0.155 µM (active) | 0.272 µM (active) | 0.294 µM (active) | 0.0199 µM (active) | 0.617 µM (active) | 0.232 µM (active) | 0.586 µM (active) | 1.05 µM (active) | 0.0579 µM (active) | 0.171 µM (active) | 0.485 µM (active) | 0.333 µM (active) | 0.146 µM (active) | 0.07 µM (active) | 0.111 µM (active) | 0.11 µM (active)
4 | Cc1ccc(N/N=C2\C3=C(CCC(C)(C)O3)C(=O)c3ccccc32)cc1 | 26.5 µM (inactive) | 11 µM (inactive) | 56.1 µM (inactive) | 15.2 µM (inactive) | 33.8 µM (inactive) | 14.7 µM (inactive) | 20.6 µM (inactive) | 17.9 µM (inactive) | 43.5 µM (inactive) | 18.4 µM (inactive) | > 100 µM (inactive) | 18.2 µM (inactive) | 10.8 µM (inactive) | 9.16 µM (inactive) | 28.2 µM (inactive) | 12.4 µM (inactive) | 18.3 µM (inactive) | 34.4 µM (inactive) | 21.3 µM (inactive) | 24.2 µM (inactive)
5 | COc1cc(Nc2ccc3c(c2)CCC3)nc(OC)n1 | 14.7 µM (inactive) | 44.4 µM (inactive) | 38.5 µM (inactive) | 29.6 µM (inactive) | > 100 µM (inactive) | 29.6 µM (inactive) | 54.6 µM (inactive) | > 100 µM (inactive) | 32.4 µM (inactive) | 78 µM (inactive) | 50 µM (inactive) | 26.4 µM (inactive) | 36 µM (inactive) | 32.1 µM (inactive) | 37.9 µM (inactive) | 53 µM (inactive) | 24.3 µM (inactive) | 34.8 µM (inactive) | 38.2 µM (inactive) | 46.1 µM (inactive)
6 | NS(=O)(=O)c1ccc(/N=N/c2ccc(O)c(C(=O)O)c2)cc1 [SALAZOSULFAMIDE] | > 100 µM (inactive) | > 100 µM (inactive) | > 100 µM (inactive) | 29.1 µM (inactive) | > 100 µM (inactive) | > 100 µM (inactive) | > 100 µM (inactive) | > 100 µM (inactive) | > 100 µM (inactive) | > 100 µM (inactive) | > 100 µM (inactive) | > 100 µM (inactive) | > 100 µM (inactive) | 52.2 µM (inactive) | > 100 µM (inactive) | > 100 µM (inactive) | > 100 µM (inactive) | > 100 µM (inactive) | > 100 µM (inactive) | > 100 µM (inactive)
7 | Clc1ccc(-c2nn3c(C45CC6CC(CC(C6)C4)C5)nnc3s2)cc1 | > 100 µM (inactive) | – | 55.6 µM (inactive) | > 100 µM (inactive) | > 100 µM (inactive) | > 100 µM (inactive) | > 100 µM (inactive) | > 100 µM (inactive) | > 100 µM (inactive) | > 100 µM (inactive) | > 100 µM (inactive) | > 100 µM (inactive) | > 100 µM (inactive) | > 100 µM (inactive) | > 100 µM (inactive) | > 100 µM (inactive) | 50.2 µM (inactive) | – | 63.1 µM (inactive) | 39.1 µM (inactive)

— ChEMBL document CHEMBL1201862, “PubChem BioAssay data set” (2004)
